In article doi:10.1101/2021.05.03.442520v1 (biorxiv, 2021):

Target: TMPRSS2 (Homo sapiens, UniProt O15393)
Experiment: fluorogenic pericellular protease assay, transfected Vero E6 cells
Format: cell-based
Conditions: Vero C1008, read-out: % inhibition at 10 nM

Chain of TMPRSS2 (O15393 whole entry): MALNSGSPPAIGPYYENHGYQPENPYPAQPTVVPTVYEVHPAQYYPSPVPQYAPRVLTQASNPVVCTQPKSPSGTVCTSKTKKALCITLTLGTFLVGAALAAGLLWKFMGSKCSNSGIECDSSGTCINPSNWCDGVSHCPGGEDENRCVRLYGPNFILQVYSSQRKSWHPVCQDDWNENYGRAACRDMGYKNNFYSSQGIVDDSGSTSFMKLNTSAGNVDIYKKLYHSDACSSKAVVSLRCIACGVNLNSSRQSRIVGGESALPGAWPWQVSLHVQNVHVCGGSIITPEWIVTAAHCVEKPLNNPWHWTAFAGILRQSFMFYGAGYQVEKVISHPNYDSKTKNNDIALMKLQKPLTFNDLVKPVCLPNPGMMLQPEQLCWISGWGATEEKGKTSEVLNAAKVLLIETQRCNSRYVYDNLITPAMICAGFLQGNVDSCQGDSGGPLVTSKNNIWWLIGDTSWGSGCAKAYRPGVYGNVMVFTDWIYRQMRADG

Question: For `N=C(N)NCCCCC(=O)N[C@@H](CCC(N)=O)C(=O)N[C@@H](CC1CCCCC1)C(=O)N[C@@H](CCCNC(=N)N)C(=O)c1nc2ccccc2s1` [N-0678], which inhibition at 0.01 µM is on record?
Answer: Its inhibition at 0.01 µM is 5%.

Question: How did the inhibition at 0.01 µM turn out when `N=C(N)NCCC[C@H](NC(=O)[C@H](Cc1ccccc1)NC(=O)[C@H](CCC(N)=O)NC(=N)N)C(=O)c1nc2ccccc2s1` [N-1296] was run?
Answer: The inhibition at 0.01 µM was 16%.
